Test [1] deals with Escherichia coli. Put plainly: Antibacterial against Escherichia coli ATCC 8739 at 20 mg/mL after 24 hrs by NCCLS M7-A6 method. The test is classed as functional, organism-based.
The test system of test [2] is Micrococcus luteus. The test can be described thus: Antibacterial against Micrococcus luteus ATCC 9341 after 24 hrs by NCCLS M7-A6 method. The note with it: Micrococcus luteus, ATCC 9341, 24 h; read-out: MIC. The class given is functional.
Test [3] relates to Staphylococcus aureus. Put plainly: Antibacterial against Staphylococcus aureus ATCC 6538P at 20 mg/mL after 24 hrs by NCCLS M7-A6 method. The test is classed as functional, organism-based.
In test [4] the test system is Micrococcus luteus. The test can be described thus: Antibacterial against Micrococcus luteus ATCC 10240 at 20 mg/mL after 24 hrs by NCCLS M7-A6 method. The test is classed as functional, organism-based.
The subject of test [5] is Bacillus cereus. The test can be described thus: Antibacterial against Bacillus cereus ATCC 11778 at 20 mg/mL after 24 hrs by NCCLS M7-A6 method. The test is classed as functional, organism-based.
Test [6] concerns Staphylococcus aureus. Put plainly: Antibacterial against Staphylococcus aureus ATCC 6538 at 20 mg/mL after 24 hrs by NCCLS M7-A6 method. The test is classed as functional, organism-based.
In test [7] the test system is Escherichia coli. Put plainly: Antibacterial against Escherichia coli ATCC 10536 at 20 mg/mL after 24 hrs by NCCLS M7-A6 method. The test is classed as functional, organism-based.
Test [8] has as its system Bacillus subtilis. The test can be described thus: Antibacterial against Bacillus subtilis ATCC 6633 at 20 mg/mL after 24 hrs by NCCLS M7-A6 method. The test is classed as functional, organism-based.
For test [9], the system named is Escherichia coli. The test can be described thus: Antibacterial against Escherichia coli ATCC 10536 after 24 hrs by NCCLS M7-A6 method. The test is classed as functional. The note with it: ATCC 10536, 24 h.
The test system of a further test is 786-0. The test can be described thus: Cytotoxicity against human 786-0 cells assessed as cell growth inhibition at 10^-5 M. The test is classed as functional, cell-based.
The test system of test [10] is Staphylococcus aureus. Put plainly: Antibacterial against Staphylococcus aureus ATCC 6538P after 24 hrs by NCCLS M7-A6 method. The class given is functional.
Test [11] relates to Bacillus subtilis. Put plainly: Antibacterial against Bacillus subtilis ATCC 6633 after 24 hrs by NCCLS M7-A6 method. The class given is functional. Conditions: Bacillus subtilis, ATCC 6633, 24 h; read-out: MIC.
Test [12] deals with Cancer cell lines. Put plainly: Cytotoxicity against human ovarian cancer cells assessed as cell growth inhibition at 10^-5 M. The test is classed as functional, cell-based.
The test system of test [13] is Cancer cell lines. The test can be described thus: Cytotoxicity against human lung cancer cells assessed as cell growth inhibition at 10^-5 M. The test is classed as functional, cell-based.
The test system of a further test is Melanoma cell. The test can be described thus: Cytotoxicity against human melanoma cells assessed as cell growth inhibition at 10^-5 M. The class given is functional, cell-based.
Test [14] deals with Cancer cell lines. Put plainly: Cytotoxicity against human colon cancer cells assessed as cell growth inhibition at 10^-5 M. The class given is functional, cell-based.
Test [15] has as its system Staphylococcus aureus. Put plainly: Antibacterial against Staphylococcus aureus ATCC 6538 after 24 hrs by NCCLS M7-A6 method. The class given is functional. Conditions: ATCC 6538, 24 h.
The test system of another test is Leukemia cell. The test can be described thus: Cytotoxicity against human leukemia cells assessed as cell growth inhibition at 10^-5 M. The test is classed as functional, cell-based.
Test [16] relates to Cancer cell lines. The test can be described thus: Cytotoxicity against human prostate cancer cells assessed as cell growth inhibition at 10^-5 M. The class given is functional, cell-based.
In test [17] the test system is Cancer cell lines. Put plainly: Cytotoxicity against human renal cancer cells assessed as cell growth inhibition at 10^-5 M. The test is classed as functional, cell-based.
Test [18] relates to Bacillus cereus. Put plainly: Antibacterial against Bacillus cereus ATCC 11778 after 24 hrs by NCCLS M7-A6 method. The class given is functional. Conditions: Bacillus cereus, ATCC 11778, 24 h; read-out: MIC.
Test [19] concerns Cancer cell lines. The test can be described thus: Cytotoxicity against human CNS cancer cells assessed as cell growth inhibition at 10^-5 M. The class given is functional, cell-based.
Test [20] concerns Cancer cell lines. The test can be described thus: Cytotoxicity against human breast cancer cells assessed as cell growth inhibition at 10^-5 M. The test is classed as functional, cell-based.
The subject of the next test is CCRF-CEM. The test can be described thus: Cytotoxicity against human CCRF-CEM cells assessed as cell growth inhibition at 10^-5 M. The class given is functional, cell-based.
The next test deals with HOP-92. The test can be described thus: Cytotoxicity against human HOP92 cells assessed as cell growth inhibition at 10^-5 M. The test is classed as functional, cell-based.
The test system of a further test is HCC 2998. The test can be described thus: Cytotoxicity against human HCC2998 cells assessed as cell growth inhibition at 10^-5 M. The class given is functional, cell-based.
The test system of the next test is HL-60. Put plainly: Cytotoxicity against human HL60 cells assessed as cell growth inhibition at 10^-5 M. The class given is functional, cell-based.
The subject of test [21] is Micrococcus luteus. Put plainly: Antibacterial against Micrococcus luteus ATCC 9341 at 20 mg/mL after 24 hrs by NCCLS M7-A6 method. The test is classed as functional, organism-based.

Results on 6 compounds are retold here after ChEMBL document CHEMBL1781990, “Synthesis and pharmacological activity of O-aminoalkyl derivatives of 7-hydroxycoumarin” (2011).

Molecules are shown by their SMILES. Values after ≈ are worked out from the molar mass of the structure shown. Active and inactive are the calls of the source. The calls are words filed in the database; no cut-off is given here.

As a reminder, the MIC is the lowest concentration found to suppress growth. Turning to `CC(=O)c1c(OCCN(C(C)C)C(C)C)ccc2c(C)cc(=O)oc12`, the result with Escherichia coli [1], with Staphylococcus aureus [3], in the test with Micrococcus luteus [4], in the test with Bacillus cereus [5], in the test with Staphylococcus aureus [6] and in the test with Escherichia coli [7] was inactive. In addition, in the test with Bacillus subtilis [8], the result was inactive. For the same compound, the MIC in the test with Micrococcus luteus [2] turned out to be 25 mM (≈ 8640 µg/mL).
Turning to `Cc1cc(=O)oc2cc(OCCN(C(C)C)C(C)C)ccc12`, the MIC was 14.7 mM (≈ 4460 µg/mL) in the test with Escherichia coli [9]; 7.4 mM (≈ 2250 µg/mL) in the test on Micrococcus luteus [2]; 44.1 mM (≈ 13400 µg/mL) in the test with Staphylococcus aureus [10]; 2.9 mM (≈ 880 µg/mL) in the test with Bacillus subtilis [11]; 44.1 mM (≈ 13400 µg/mL) against Staphylococcus aureus [15]; 2.9 mM (≈ 880 µg/mL) in the test with Bacillus cereus [18]. The “growth inhibition (GI)” value in the test on 786-0, in the test on Cancer cell lines [12], with Cancer cell lines [13], with Melanoma cell, in the test with Cancer cell lines [14] and in the test with Leukemia cell was “inactive” in each case. For the same compound, the “growth inhibition (GI)” value in the test with Cancer cell lines [16], with Cancer cell lines [17], in the test with Cancer cell lines [19] and in the test with Cancer cell lines [20] was “inactive” in each case.
For the compound `CC(=O)c1cc2c(C)cc(=O)oc2cc1OCCN1CCOCC1`, the MIC against Escherichia coli [9], with Micrococcus luteus [2], against Staphylococcus aureus [10], with Bacillus subtilis [11], in the test on Staphylococcus aureus [15] and in the test with Bacillus cereus [18] was 30.2 mM (≈ 10000 µg/mL) in each case. Moreover, the “growth inhibition (GI)” value in the test with CCRF-CEM, in the test on HOP-92 and in the test on HCC 2998 was “Active” throughout.
For the compound `CC(=O)c1c(OCCN2CCCCC2C)ccc2c(C)cc(=O)oc12` (configuration not stated), the MIC against Escherichia coli [9] came out at 49.2 mM (≈ 16900 µg/mL); in the test with Micrococcus luteus [2], 12.3 mM (≈ 4220 µg/mL); against Staphylococcus aureus [10], 24.6 mM (≈ 8450 µg/mL); with Bacillus subtilis [11], 24.6 mM (≈ 8450 µg/mL); in the test on Staphylococcus aureus [15], 24.6 mM (≈ 8450 µg/mL); in the test on Bacillus cereus [18] it was 24.6 mM (≈ 8450 µg/mL). The “growth inhibition (GI)” value with 786-0 and in the test on HL-60 was “Active” throughout.
`Cc1cc(=O)oc2cc(O)ccc12` [HYMECROMONE]: the result with Escherichia coli [1], with Staphylococcus aureus [3], with Micrococcus luteus [4], in the test on Staphylococcus aureus [6], in the test on Escherichia coli [7] and in the test with Bacillus subtilis [8] was inactive. In addition, in the test with Micrococcus luteus [21], the result was inactive. The MIC in the test with Bacillus cereus [18] was found to be 85.1 mM (≈ 15000 µg/mL).
Consider `O=c1ccc2ccc(O)cc2o1`, for which the result in the test with Escherichia coli [1], with Staphylococcus aureus [3], with Micrococcus luteus [4], in the test on Bacillus cereus [5], with Staphylococcus aureus [6] and in the test with Escherichia coli [7] was inactive. For the same compound, the result in the test on Bacillus subtilis [8] and in the test with Micrococcus luteus [21] was inactive.
